Experimental data published in ChEMBL document CHEMBL5143641, “Expanding the Chemical Diversity of Fasamycin Via Genome Mining and Biocatalysis” (2022).

Columns and labels:
Format in all cases: functional
[1] = system: Candida albicans; assay: Antimicrobial activity against Candida albicans ATCC 10231 assessed as inhibition of microbial growth incubated for 16 hrs under shaking condition by microdilution assay
[2] = system: Staphylococcus aureus; assay: Antimicrobial activity against Staphylococcus aureus ATCC 51650 assessed as inhibition of microbial growth incubated for 16 hrs under shaking condition by microdilution assay
[3] = system: Escherichia coli; assay: Antimicrobial activity against Escherichia coli ATCC 25922 assessed as inhibition of microbial growth incubated for 16 hrs under shaking condition by microdilution assay
[4] = system: Bacillus subtilis; assay: Antimicrobial activity against Bacillus subtilis ATCC 23857 assessed as inhibition of microbial growth incubated for 16 hrs under shaking condition by microdilution assay

| SMILES | MIC [1] | MIC [2] | MIC [3] | MIC [4] |
| --- | --- | --- | --- | --- |
| COc1cc(C)c(-c2cc(OC)cc3cc4c(c(O)c23)C(=O)c2c(O)cc(O)cc2C4(C)C)c(O)c1 | > 100 µg/mL | 6.3 µg/mL | > 100 µg/mL | 12.5 µg/mL |
| COc1cc(C)c(-c2cc(O)cc3cc4c(c(O)c23)C(=O)c2c(cc(OC)c(Cl)c2O)C4(C)C)c(O)c1 | > 100 µg/mL | 3.1 µg/mL | > 100 µg/mL | 1.6 µg/mL |
| COc1cc2c(c(O)c1Cl)C(=O)c1c(cc3cc(O)cc(-c4c(O)cc(OC)c(Br)c4C)c3c1O)C2(C)C | > 100 µg/mL | 3.1 µg/mL | > 100 µg/mL | 1.6 µg/mL |
| COc1cc(O)c2c(c1)C(C)(C)c1cc3cc(O)cc(-c4c(O)cc(OC)c(Cl)c4C)c3c(O)c1C2=O | > 100 µg/mL | 3.1 µg/mL | > 100 µg/mL | 1.6 µg/mL |
| COc1cc(C)c(-c2cc(OC)cc3cc4c(c(O)c23)C(=O)c2c(O)cc(OC)cc2C4(C)C)c(O)c1 | > 100 µg/mL | > 100 µg/mL | > 100 µg/mL | > 100 µg/mL |
| COc1cc(O)c(-c2cc(O)c(Br)c3cc4c(c(O)c23)C(=O)c2c(O)cc(O)cc2C4(C)C)c(C)c1Br | > 100 µg/mL | 1.6 µg/mL | > 100 µg/mL | 1.6 µg/mL |
| COc1cc(C)c(-c2cc(O)cc3cc4c(c(O)c23)C(=O)c2c(O)cc(OC)cc2C4(C)C)c(O)c1 | > 100 µg/mL | 3.1 µg/mL | > 100 µg/mL | 1.6 µg/mL |
| COc1cc(O)c2c(c1)C(C)(C)c1cc3cc(O)cc(-c4c(O)cc(OC)c(Br)c4C)c3c(O)c1C2=O | > 100 µg/mL | 3.1 µg/mL | > 100 µg/mL | 1.6 µg/mL |

Results, then the compound that gave them:

| MIC [1] | MIC [2] | MIC [3] | MIC [4] | SMILES |
| --- | --- | --- | --- | --- |
| > 100 µg/mL | 6.3 µg/mL | > 100 µg/mL | 6.3 µg/mL | COc1cc(O)c(-c2cc(O)cc3cc4c(c(O)c23)C(=O)c2c(O)cc(O)cc2C4(C)C)c(C)c1Cl |
| > 100 µg/mL | 12.5 µg/mL | > 100 µg/mL | 12.5 µg/mL | COc1cc(C)c(-c2cc(O)cc3cc4c(c(O)c23)C(=O)c2c(cc(O)c(Cl)c2O)C4(C)C)c(O)c1 |
| > 100 µg/mL | 3.1 µg/mL | > 100 µg/mL | 3.1 µg/mL | COc1cc(C)c(-c2cc(O)cc3cc4c(c(O)c23)C(=O)c2c(cc(OC)c(Br)c2O)C4(C)C)c(O)c1 |
| > 100 µg/mL | 3.1 µg/mL | > 100 µg/mL | 3.1 µg/mL | COc1cc(O)c(-c2cc(O)cc3cc4c(c(O)c23)C(=O)c2c(O)cc(O)cc2C4(C)C)c(C)c1Br |
|  | 1.6 µg/mL |  | 0.8 µg/mL | NC[C@H]1O[C@H](O[C@H]2[C@H](O)[C@@H](O[C@H]3O[C@H](CO)[C@@H](O)[C@H](N)[C@H]3O)[C@H](N)C[C@@H]2N)[C@H](O)[C@@H](O)[C@@H]1O [KANAMYCIN] |
